Experimental data taken from paper PMC7072979, “Doxorubicin Inhibits Phosphatidylserine Decarboxylase and Modifies Mitochondrial Membrane Composition in HeLa Cells” (International Journal of Molecular Sciences, 2020).

Biological target: T1, phosphatidylserine decarboxylase (PSD) (Homo sapiens, UniProt Q9UG56)
T1 construct: gene PISD; native endogenous enzyme in mitochondria isolated from HeLa cells (not purified); proenzyme self-cleaved into alpha and beta subunits
T1 sequence (Q9UG56 53-377): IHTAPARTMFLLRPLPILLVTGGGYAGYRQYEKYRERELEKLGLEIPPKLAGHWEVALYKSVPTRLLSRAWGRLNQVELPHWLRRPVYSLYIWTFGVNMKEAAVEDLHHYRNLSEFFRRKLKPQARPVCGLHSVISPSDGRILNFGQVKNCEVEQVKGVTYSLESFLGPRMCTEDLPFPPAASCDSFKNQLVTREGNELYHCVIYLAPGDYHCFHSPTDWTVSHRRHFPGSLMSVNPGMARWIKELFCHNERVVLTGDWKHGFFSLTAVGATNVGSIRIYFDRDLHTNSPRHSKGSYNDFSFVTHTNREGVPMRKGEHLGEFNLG
T1 sequence (Q9UG56 378-409): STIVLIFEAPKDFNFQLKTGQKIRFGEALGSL
Experiment: PE-NBD formation from PS-NBD, HPTLC fluorescence scan, isolated mitochondria
Type: biochemical

An inhibition at 5 µM of 48% was found for `COc1cccc2c1C(=O)c1c(O)c3c(c(O)c1C2=O)C[C@@](O)(C(=O)CO)C[C@@H]3O[C@H]1C[C@H](N)[C@H](O)[C@H](C)O1` [Doxorubicin] in this work.
